Read-outs that look alike come from different tables or passages of the source.
Columns and labels:
[1] = tested on: WT-YFV strain FJYF03/2016; parameters: species or system A129^−/− mice; conditions: mouse, in vivo
[2] = molecular target: YFV NS5 (Yellow fever virus, UniProt P03314); experiment: biochemical; format: binding
[3] = tested on: YFV replicon; format: cell-based, Yellow fever virus
[4] = tested on: YFV-17D^DiD; format: cell-based, Yellow fever virus
[5] = tested on: West Nile virus (WNV); format: cell-based
[6] = molecular target: WNV NS5 (West Nile virus, UniProt Q9Q6P4); experiment: biochemical; format: binding
WNV NS5, sequence (Q9Q6P4 2529-3433 limits assumed): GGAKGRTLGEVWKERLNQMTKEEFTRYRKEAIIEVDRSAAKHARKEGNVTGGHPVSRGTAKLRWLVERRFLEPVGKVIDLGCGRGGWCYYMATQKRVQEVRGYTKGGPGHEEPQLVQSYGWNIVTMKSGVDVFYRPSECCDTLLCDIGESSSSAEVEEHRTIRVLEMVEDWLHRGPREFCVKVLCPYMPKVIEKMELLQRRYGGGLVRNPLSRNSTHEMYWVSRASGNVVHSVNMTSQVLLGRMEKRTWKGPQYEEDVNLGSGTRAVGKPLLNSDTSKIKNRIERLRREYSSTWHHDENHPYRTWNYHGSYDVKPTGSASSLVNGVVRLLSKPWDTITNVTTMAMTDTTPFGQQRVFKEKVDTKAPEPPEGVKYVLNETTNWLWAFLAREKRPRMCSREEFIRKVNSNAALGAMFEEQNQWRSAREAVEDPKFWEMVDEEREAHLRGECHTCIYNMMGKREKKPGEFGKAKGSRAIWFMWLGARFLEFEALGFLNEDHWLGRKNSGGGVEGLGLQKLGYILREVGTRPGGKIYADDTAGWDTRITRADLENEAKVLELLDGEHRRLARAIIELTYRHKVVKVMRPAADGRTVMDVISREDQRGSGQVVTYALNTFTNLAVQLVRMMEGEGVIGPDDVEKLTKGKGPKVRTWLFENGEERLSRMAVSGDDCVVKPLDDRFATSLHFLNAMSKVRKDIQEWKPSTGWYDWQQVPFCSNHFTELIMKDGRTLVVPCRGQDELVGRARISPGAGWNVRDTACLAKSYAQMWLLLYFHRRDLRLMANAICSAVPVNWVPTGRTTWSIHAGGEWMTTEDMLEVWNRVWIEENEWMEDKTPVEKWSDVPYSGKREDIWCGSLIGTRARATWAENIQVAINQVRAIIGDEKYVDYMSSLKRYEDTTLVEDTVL

[7] = tested on: Japanese encephalitis virus (JEV); format: cell-based
[8] = tested on: Zika virus (ZIKV); format: cell-based
[9] = tested on: YFV-17D; format: cell-based, Yellow fever virus
[10] = tested on: WT-YFV strain FJYF03/2016; parameters: species or system C57 mice; conditions: mouse, in vivo
[11] = tested on: YFV-17D; format: cell-based, Yellow fever virus; remark: listed apart in the source
[12] = tested on: WNV; format: cell-based, West Nile virus
[13] = tested on: YFV-17D; format: cell-based, Yellow fever virus; remark: listed apart in the source
[14] = tested on: YFV-17D; format: cell-based, Yellow fever virus; remark: listed apart in the source
[15] = tested on: clathrin-mediated endocytosis; format: cell-based, Human
[16] = tested on: YFV; format: cell-based, Yellow fever virus
[17] = tested on: dengue virus (DENV); format: cell-based
[18] = tested on: hepatitis C virus (HCV); format: cell-based

YFV NS5, sequence (P03314 2507-3411 limits assumed): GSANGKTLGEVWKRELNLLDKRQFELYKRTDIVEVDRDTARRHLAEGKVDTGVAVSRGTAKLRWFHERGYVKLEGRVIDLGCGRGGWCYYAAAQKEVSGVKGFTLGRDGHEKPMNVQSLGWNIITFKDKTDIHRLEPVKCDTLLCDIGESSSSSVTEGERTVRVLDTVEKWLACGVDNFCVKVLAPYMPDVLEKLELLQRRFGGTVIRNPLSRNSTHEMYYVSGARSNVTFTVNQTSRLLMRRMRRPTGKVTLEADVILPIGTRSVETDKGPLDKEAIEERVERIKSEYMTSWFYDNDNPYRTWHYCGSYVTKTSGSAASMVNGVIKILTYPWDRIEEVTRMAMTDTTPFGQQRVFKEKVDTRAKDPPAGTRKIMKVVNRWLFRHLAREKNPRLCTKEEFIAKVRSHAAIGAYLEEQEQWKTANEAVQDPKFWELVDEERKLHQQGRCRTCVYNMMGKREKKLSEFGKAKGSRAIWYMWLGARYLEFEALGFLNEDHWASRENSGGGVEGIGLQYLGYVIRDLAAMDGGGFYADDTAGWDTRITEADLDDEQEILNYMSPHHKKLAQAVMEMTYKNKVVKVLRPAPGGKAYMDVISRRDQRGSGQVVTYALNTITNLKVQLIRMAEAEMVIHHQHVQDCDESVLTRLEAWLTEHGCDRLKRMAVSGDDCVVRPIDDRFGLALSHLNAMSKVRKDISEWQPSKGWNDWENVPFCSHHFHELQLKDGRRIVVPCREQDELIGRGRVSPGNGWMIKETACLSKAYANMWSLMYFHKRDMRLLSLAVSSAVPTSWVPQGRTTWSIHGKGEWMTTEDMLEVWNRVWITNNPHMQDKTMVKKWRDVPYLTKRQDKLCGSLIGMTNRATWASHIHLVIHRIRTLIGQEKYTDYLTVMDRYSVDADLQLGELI

**Q.** `CC(C)OC(=O)[C@H](C)N[P@](=O)(OC[C@H]1O[C@@H](n2ccc(=O)[nH]c2=O)[C@](C)(F)[C@@H]1O)Oc1ccccc1` [Sofosbuvir] was tested. Which survival rate [1] did it give?
**A.** slight protective activity in the highest infection-dose group

**Q.** And the Kd [2]?
**A.** 6140 µM

**Q.** And the “YFV replication in replicon cells” value [3]?
**A.** relatively good inhibitory effect

**Q.** `CO[C@H]1/C=C/O[C@@]2(C)Oc3c(C)c(O)c4c(O)c(c(/C=N/N5CCN(C6CCCC6)CC5)c(O)c4c3C2=O)NC(=O)/C(C)=C\C=C\[C@H](C)[C@H](O)[C@@H](C)[C@@H](O)[C@@H](C)[C@H](OC(C)=O)[C@@H]1C` [Rifapentine] was tested. Which “virion-host cell fusion (DiD fluorescence signal)” value (from here on “virion-host cell fusion”) [4] did it give?
**A.** no inhibitory effect

**Q.** And the “body weight of survival mice” value [1]?
**A.** recovered to almost the normal level

**Q.** And the clinical signs [1]?
**A.** slowed down or reduced the occurrence of clinical signs

**Q.** What about the survival rate [1] of the same compound?
**A.** significantly enhanced the survival rate

**Q.** And the “virus titres in kidney” value [1]?
**A.** did not recognize distinctive changes

**Q.** And the “virus titres in liver” value [1]?
**A.** did not recognize distinctive changes

**Q.** What about the “virus titres in serum” value [1] of the same compound?
**A.** reduced virus titres significantly

**Q.** What about the “virus titres in spleen” value [1] of the same compound?
**A.** reduced virus titres significantly

**Q.** What about the Kd [2] of the same compound?
**A.** 20.8 µM

**Q.** What about the “inhibitory effect on WNV infection” value [5] of the same compound?
**A.** slight suppressive activity above 5 μM

**Q.** What about the Kd [6] of the same compound?
**A.** 54.6 µM

**Q.** What about the “inhibitory effect on JEV infection” value [7] of the same compound?
**A.** no obvious inhibitory effect

**Q.** What about the “inhibitory effect on ZIKV infection” value [8] of the same compound?
**A.** no obvious inhibitory effect

**Q.** What about the “YFV attachment to the cell surface” value [9] of the same compound?
**A.** impeded YFV attachment to the cell surface in a dose-dependent manner

**Q.** What about the “body weight of surviving mice” value [10] of the same compound?
**A.** all recovered to normal levels

**Q.** What about the clinical symptoms [10] of the same compound?
**A.** fewer injury features

**Q.** What about the survival of mice [10] of the same compound?
**A.** significantly improved the survival of mice

**Q.** And the survival rate [10]?
**A.** approximately 40%

**Q.** What about the “effect on YFV infection in kinetic test” value [11] of the same compound?
**A.** obstructive effect on YFV infection throughout the entire phase of viral entry and post-entry stages

**Q.** And the WNV binding [12]?
**A.** did not affect WNV binding

**Q.** What about the “intracellular YFV RNA level” value [13] of the same compound?
**A.** suppressed in a dose-dependent manner

**Q.** What about the “infectivity of virions incubated with compound” value [14] of the same compound?
**A.** no obvious differences in infectivity

**Q.** And the TF uptake [15]?
**A.** No major changes

**Q.** And the “YFV assembly and release” value [16]?
**A.** did not influence YFV assembly and release

**Q.** And the “YFV replication in replicon cells” value [3]?
**A.** robustly abolished YFV replication from 1 to 25 μM

**Q.** And the “inhibitory effect on DENV infection” value [17]?
**A.** no obvious inhibitory effect

**Q.** And the “inhibitory effect on HCV infection” value [18]?
**A.** no obvious inhibitory effect

**Q.** `Cl.N` [NH4Cl] was tested. Which “virion-host cell fusion” value [4] did it give?
**A.** fluorescence signal reduced significantly

**Q.** Which “virion-host cell fusion” value [4] does the source give for `CO/C1=C\C(C)=C\[C@@H](C)[C@@H](O)[C@@H](C)C/C(C)=C/C=C/[C@H](OC)[C@@H]([C@@H](C)[C@@H](O)[C@H](C)[C@@]2(O)C[C@@H](O)[C@H](C)[C@@H](C(C)C)O2)OC1=O` [bafilomycin A1] here?
**A.** fluorescence signal reduced significantly

From PMC8942558 (Emerging Microbes & Infections, 2022)
